Assay results as given in patent US11883450B1, “Extract of Agathis robusta as antifungal agent” (KING FAISAL UNIVERSITY, priority 2023, dated 2024).
Converted amounts (≈) assume the structure as drawn.

Columns and labels:
[1] = test system: Fungi stains; assay: Minimum fungicidal concentration (MFC), positive control, strain not stated; type: cell-based
Protocol: Minimum fungicidal concentration (MFC) was determined according to Zinsou et al., “Development of new dermatological formulations for the treatment of cutaneous candidiasis”, Scientific African (2020), 8:e00342. Different final concentrations (0.1 to 1 mg/mL) of the bark essential oils were dissolved in DEMO and added to liquid Sabouraud dextrose broth. From the above fungal stain suspension, 1 mL was added to each essential oil tube. The tubes were incubated at room temperature for three days. Negative and positive controls were made through the addition of an equivalent amount of DMSO and Ketoconazole, respectively. MFC was calculated through the determination of the lowest concentration of the essential oil, which could inhibit the growth of the fungus. Every concentration was repeated 5 times in three different experiments, and the mean and SD of inhibition zones were calculated for each fungal strain. The MIC was determined as the lowest concentration of essential oil that inhibited fungal growth after 48 h.

[2] = test system: C. albicans; assay: In vivo topical fungal infection of burn wounds in Wistar rats; settings: for percentage of fungicidal activity (wound fungal load): FIG. 5
Protocol: The development of in vivo topical fungal infection was determined according to Zinsou, A. et al., “Development of new dermatological formulations for the treatment of cutaneous candidiasis”, Scientific African (2020):8:e00342, and modified Ray and Wuepper, “Experimental Cutaneous Candidiasis in Rodents: II. Role of the Stratum Corneum Barrier and Serum Complement as a Mediator of a Protective Inflammatory Response”, Archives of Dermatology (1978), Vol. 114(4): 539-43. The experimental protocol was permitted by the Institutional Animal Care and Use Committee of King Faisal University (KFU-REC-2023-JAN-EA000691). All the experiments were executed in harmony with the relevant procedures and regulations of the Ethical Conduct for the Use of Animals in Research at King Faisal University. Wistar rats weighing (220±30 g) were used for the whole experiment. The animals' backs were shaved after anesthesia, and sterilized with 70% ethyl alcohol in water and left to dry. The injury was induced on the shaven back of each rat using a hot copper metal rod. The injury was swabbed with 0.5 mL broth containing […] Colony-Forming Units (CFU) of C. albicans. The essential oil topical preparations were applied once daily, starting from day 3, directly on the infected wound until the wound was completely healed (nearly 20 days). No antibiotic or antifungal preparations were administered to any of the animal groups, and the animals were monitored daily for any wound contamination. The animals' wounds were covered by sterile wound plaster, which is changed every day. […]
The animals' infected wounds (lesions) were monitored according to Masoko, et al., “In vivo antifungal effect of Combretum and Terminalia species extracts on cutaneous wound healing in immunosuppressed rats”, Pharm Biol (2010): 48:6:621-32, and Sullivan, et al., “Assessment of wound bioburden development in a rat acute wound model: Quantitative swab versus tissue biopsy”, Wounds (2004): 16: 115-123, using the following parameters: (1) Presence and type of exudate, erythema, swelling, ulceration, and crust formation: The scoring of the lesions regarding the exudate was measured using the following criteria: 0: No exudate, 1: Exudate just visible, 2: Exudate easily visible, 3: Substantial quantity of exudate, 4: Large quantity of exudate; (2) Wound contraction percentage: The lesion diameters were determined in millimeters (mm) vertically and horizontally. The lesion size percentage was calculated using the below equation: Wound contraction percentage=((Wound area day 0-Wound area day X)/Wound area day 0)×100, where X represents the number of days;
(3) Epithelialization time: The number of days needed for the wound Escher to fade away, leaving no visible wound, was used to determine the epithelialization period. (4) Evaluation of wound fungal load was determined according to Sullivan et al., supra: At the 3rd, 10th, and 15 days, each lesion was gently swabbed by a sterile swab 3 times anticlockwise with mild pressure. […] The plates were incubated for 48 hours at 37° C., and the number of yeasts on each plate was manually counted. […]

How did the MFC [1] turn out when CC(=O)N1CCN(c2ccc(OCC3COC(Cn4ccnc4)(c4ccc(Cl)cc4Cl)O3)cc2)CC1 (stereo not drawn) [Ketoconazole] was run?
The MFC was 0.037 µg/mL (≈ 0.0696 µM).

And the “reduction of wound exudate related to the non-treatment lesions” value ([2]; AUC of exudate score, FIG. 2B, topical once daily from day 3)?
Its value is 58%.

What about the “reduction of epithelization time related to the untreated infected wound” value ([2]; FIG. 4) of the same compound?
Its value is 42%.

And the wound contraction percentage ([2]; by day 21, FIG. 3)?
Its wound contraction percentage is 100%.

What about the “percentage of fungicidal activity (wound fungal load)” value ([2]; day 5, related to the untreated-infected wound) of the same compound?
Its value is 45.85%.

What about the “percentage of fungicidal activity (wound fungal load)” value ([2]; day 15, related to the untreated-infected wound) of the same compound?
Its value is 98.58%.
